Data published in the supplement of paper PMC11061612.

Legend:
Assay in all cases: combination Emax (second highest fraction inhibited in the dose matrix, 72 h); higher = more inhibition; extreme values may be limits of the assay
[1] = tested on: MHH-PREB-1 (B-Cell Non-Hodgkin's Lymphoma)
Method in brief: (§1)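 After 24 hours at 37°C and 5% CO2 in 1536-well plates, cells in DMEM/F12 or RPMI plus 10% FBS received two-drug dose matrices for 72 hours. Viability came from CellTiter-Glo 2.0 luminescence and was scaled as inhibition, anchored at 0 by vehicle wells and at 1 by blank wells. Combination Emax is taken as the second-highest inhibition in the matrix, and Bliss excess as the observed combination effect less EA + EB − EA·EB, with EA and EB the single-agent effects.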

[2] = tested on: NCI-H747 (Colorectal Carcinoma)
Method in brief: as §1

[3] = tested on: K5 (Thyroid Gland Carcinoma)
Method in brief: as §1

[4] = tested on: RPMI-6666 (Non-Cancerous)
Method in brief: as §1

[5] = tested on: RT-112 (Bladder Carcinoma)
Method in brief: as §1

[6] = tested on: CTB-1 (B-Cell Non-Hodgkin's Lymphoma)
Method in brief: as §1

[7] = tested on: HDLM-2 (Hodgkin's Lymphoma)
Method in brief: as §1

Mewo (Melanoma) = tested on: Mewo (Melanoma)
Method in brief: as §1

NCI-H2795 (Mesothelioma) = tested on: NCI-H2795 (Mesothelioma)
Method in brief: as §1

[8] = tested on: OVCAR-8 (Ovarian Carcinoma)
Method in brief: as §1

[9] = tested on: KARPAS-231 (B-Cell Non-Hodgkin's Lymphoma)
Method in brief: as §1

[10] = tested on: LoVo (Colorectal Carcinoma)
Method in brief: as §1

[11] = tested on: LB771-HNC (Head and Neck Carcinoma)
Method in brief: as §1

[12] = tested on: 8305C (Thyroid Gland Carcinoma)
Method in brief: as §1

[13] = tested on: Hs-633T (Other Solid Carcinomas)
Method in brief: as §1

[14] = tested on: SW1271 (Small Cell Lung Carcinoma)
Method in brief: as §1

[15] = tested on: HO-1-u-1 (Oral Cavity Carcinoma)
Method in brief: as §1

[16] = tested on: NCI-H69 (Small Cell Lung Carcinoma)
Method in brief: as §1

[17] = tested on: LU-139 (Small Cell Lung Carcinoma)
Method in brief: as §1

[18] = tested on: SU-DHL-6 (B-Cell Non-Hodgkin's Lymphoma)
Method in brief: as §1

Row | SMILES | combination Emax [1] | combination Emax [2] | combination Emax [3] | combination Emax [4] | combination Emax [5] | combination Emax [6] | combination Emax [7] | combination Emax (Mewo (Melanoma)) | combination Emax (NCI-H2795 (Mesothelioma)) | combination Emax [8] | combination Emax [9] | combination Emax [10] | combination Emax [11] | combination Emax [12] | combination Emax [13] | combination Emax [14] | combination Emax [15] | combination Emax [16] | combination Emax [17] | combination Emax [18]
1 | Cc1c2c(nn1C)CSCc1cc(n(C)n1)CSc1cc(c3ccccc3c1)OCCCc1c(C(=O)O)n(C)c3c-2c(Cl)ccc13 [AZD5991] + C[C@@H]1COCCN1C2=NC(=NC(=C2)C3(CC3)[S@](=N)(=O)C)C4=C5C=CNC5=NC=C4 [AZD6738] (first compound max 1 µM, 7x7, partner max 10 µM) | 0.729 | 0.322 | 0.574 | 0.889 | 0.958 | 0.785 | 0.992 | 0.59 | 0.939 | 0.783 | 1 | 0.889 | 0.806 | 0.593 | 0.938 | 0.604 | 0.844 | 0.335 | 0.446 | 1
2 | Cc1c2c(nn1C)CSCc1cc(n(C)n1)CSc1cc(c3ccccc3c1)OCCCc1c(C(=O)O)n(C)c3c-2c(Cl)ccc13 [AZD5991] + C[C@@H](Nc1cc(F)cc(F)c1)c1cc(C(=O)N(C)C)cc2c(=O)cc(N3CCOCC3)oc12 [AZD8186] (first compound max 1 µM, 7x7, partner max 3 µM) | 0.214 | 0.517 | 0.362 | 0.717 | 0.89 | 0.384 | 0.996 | 0.314 | 0.926 | 0.268 | 1 | 0.732 | 0.486 | 0.588 | 0.268 | 0.207 | 0.279 | 0.305 | 0.174 | 1
3 | Cc1c2c(nn1C)CSCc1cc(n(C)n1)CSc1cc(c3ccccc3c1)OCCCc1c(C(=O)O)n(C)c3c-2c(Cl)ccc13 [AZD5991] + Cc1cc2ncnn2cc1Nc1ncc2c(n1)n(C1CCOCC1)c(=O)n2C [AZD7648] (first compound max 1 µM, 7x7, partner max 10 µM) | 0.175 | 0.392 | 0.351 | 0.541 | 0.854 | 0.472 | 0.996 | 0.283 | 0.941 | 0.225 | 1 | 0.573 | 0.571 | 0.432 | 0.391 | 0.305 | 0.418 | 0.283 | 0.243 | 1
4 | Cc1c2c(nn1C)CSCc1cc(n(C)n1)CSc1cc(c3ccccc3c1)OCCCc1c(C(=O)O)n(C)c3c-2c(Cl)ccc13 [AZD5991] + Cn1cnc2c(F)c(Nc3ccc(Br)cc3Cl)c(C(=O)NOCCO)cc21 [Selumetinib] (first compound max 1 µM, 7x7, partner max 3 µM) | 0.13 | 0.728 | 0.739 | 0.695 | 1 | 0.203 | 0.995 | 0.475 | 0.971 | 0.255 | 1 | 0.565 | 0.429 | 0.512 | 0.64 | 0.448 | 0.292 | 0.218 | 0.148 | 1
5 | C[C@@H]1COCCN1c1cc(C2([S@](C)(=N)=O)CC2)nc(-c2ccnc3[nH]ccc23)n1 [AZD6738] + O=C(c1cc(Cc2n[nH]c(=O)c3ccccc23)ccc1F)N1CCN(C(=O)C2CC2)CC1 [Olaparib] (first compound max 10 µM, 7x7, partner max 10 µM) | 0.679 | 0.356 | 0.627 | 0.816 | 0.614 | 0.777 | 0.437 | 0.548 | 0.745 | 0.935 | 0.723 | 0.772 | 0.483 | 0.99 | 0.821 | 0.666 | 0.793 | 0.585 | 0.418 | 0.621
6 | Cc1cc2ncnn2cc1Nc1ncc2c(n1)n(C1CCOCC1)c(=O)n2C [AZD7648] + C=CCn1c(=O)c2cnc(Nc3ccc(N4CCN(C)CC4)cc3)nc2n1-c1cccc(C(C)(C)O)n1 [AZD1775] (first compound max 10 µM, partner max 1 µM) | 0.823 | 0.55 | 0.665 | 0.892 | 0.742 | 0.905 | 0.585 | 0.427 | 0.602 | 0.81 | 0.979 | 0.732 | 0.455 | 0.7 | 0.748 | 0.633 | 0.617 | 0.389 | 0.615 | 0.753
7 | Cc1cc2ncnn2cc1Nc1ncc2c(n1)n(C1CCOCC1)c(=O)n2C [AZD7648] + CCN(CCO)CCCOc1ccc2c(Nc3cc(CC(=O)Nc4cccc(F)c4)[nH]n3)ncnc2c1 [AZD2811] (first compound max 10 µM, 7x7, partner max 1 µM) | 0.343 | 0.306 | 0.571 | 0.584 | 0.49 | 0.697 | 0.345 | 0.259 | 0.45 | 0.311 | 0.517 | 0.529 | 0.251 | 0.451 | 0.431 | 0.376 | 0.449 | 0.743 | 0.397 | 0.51
8 | Cc1cc2ncnn2cc1Nc1ncc2c(n1)n(C1CCOCC1)c(=O)n2C [AZD7648] + CN(C)CCCOc1ccc(-c2ccc3ncc4c(c3c2)n(C2CCOCC2)c(=O)n4C)cn1 [AZD0156] (first compound max 10 µM, 7x7, partner max 1 µM) | 0.511 | 0.387 | 0.501 | 0.359 | 0.317 | 0.404 | 0.368 | 0.285 | 0.469 | 0.213 | 0.208 | 0.483 | 0.299 | 0.414 | 0.37 | 0.327 | 0.39 | 0.355 | 0.228 | 0.621
9 | Cc1cc2ncnn2cc1Nc1ncc2c(n1)n(C1CCOCC1)c(=O)n2C [AZD7648] + C[C@@H]1COCCN1C2=NC(=NC(=C2)C3(CC3)[S@](=N)(=O)C)C4=C5C=CNC5=NC=C4 [AZD6738] (first compound max 10 µM, 7x7, partner max 10 µM) | 0.863 | 0.408 | 0.665 | 0.797 | 0.93 | 0.802 | 0.373 | 0.5 | 0.609 | 0.71 | 0.837 | 0.813 | 0.464 | 0.609 | 0.855 | 0.674 | 0.845 | 0.469 | 0.396 | 0.613
10 | Cc1cc2ncnn2cc1Nc1ncc2c(n1)n(C1CCOCC1)c(=O)n2C [AZD7648] + O=C(c1cc(Cc2n[nH]c(=O)c3ccccc23)ccc1F)N1CCN(C(=O)C2CC2)CC1 [Olaparib] (first compound max 10 µM, 7x7, partner max 10 µM) | 0.232 | 0.241 | 0.421 | 0.584 | 0.143 | 0.331 | 0.155 | 0.138 | 0.421 | 0.344 | 0.269 | 0.533 | 0.148 | 0.31 | 0.313 | 0.24 | 0.261 | 0.337 | 0.131 | 0.346
11 | COc1cccc2c1C(=O)c1c(O)c3c(c(O)c1C2=O)C[C@@](O)(C(=O)CO)C[C@@H]3O[C@H]1C[C@H](N)[C@H](O)[C@H](C)O1 [Doxorubicin] + Cc1cc2ncnn2cc1Nc1ncc2c(n1)n(C1CCOCC1)c(=O)n2C [AZD7648] (first compound max 1 µM, 7x7, partner max 10 µM) | 0.974 | 0.743 | 0.823 | 0.971 | 0.9 | 0.911 | 0.545 | 0.599 | 0.709 | 0.923 | 0.956 | 0.688 | 0.193 | 0.876 | 0.932 | 0.768 | 0.832 | 0.747 | 0.905 | 0.989
12 | COc1cccc(OCCCN)c1-c1cc(Nc2cnc(C#N)cn2)n[nH]1 [Prexasertib] + C=CCn1c(=O)c2cnc(Nc3ccc(N4CCN(C)CC4)cc3)nc2n1-c1cccc(C(C)(C)O)n1 [AZD1775] (first compound max 1 µM, partner max 1 µM) | 0.977 | 0.746 | 0.742 | 0.955 | 1 | 0.967 | 0.612 | 0.599 | 0.804 | 0.998 | 0.989 | 0.894 | 0.622 | 0.718 | 0.973 | 0.699 | 0.986 | 0.955 | 0.741 | 0.955
13 | COc1cccc(OCCCN)c1-c1cc(Nc2cnc(C#N)cn2)n[nH]1 [Prexasertib] + CCc1c2c(nc3ccc(O)cc13)-c1cc3c(c(=O)n1C2)COC(=O)[C@]3(O)CC [SN-38] (first compound max 1 µM, 7x7, partner max 0.3 µM) | 0.96 | 0.724 | 0.628 | 0.976 | 1 | 0.934 | 0.676 | 0.721 | 0.813 | 1 | 1 | 0.847 | 0.647 | 0.823 | 0.814 | 0.769 | 0.996 | 0.896 | 0.899 | 0.991
